Source: the supplement of paper PMC12370961

How the values were obtained:
Experiment in all cases: differential drug sensitivity score (dDSS) relative to sarcoma reference cohort mean DSS (DSS units (0-100 scale difference)); higher = more selective sensitivity than reference sarcomas
Details in all cases: exposure time: 72 h; concentration range: 10-10000 nM
[1] = system: CDS-ZH001 (patient-derived CIC-DUX4 sarcoma tumoroid)
Description: (§1)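 Drug response profiling of patient-derived Ewing sarcoma and CIC::DUX4 sarcoma tumoroid models (or cells tested directly after isolation from the tumor, 'direct'). The DSS is the normalised AUC (0-100); dDSS is the sample DSS minus the mean DSS of a 34-sarcoma reference cohort profiled in the same lab.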

[2] = system: CDS-ZH002 direct (CIC-DUX4 sarcoma cells right after isolation)
Description: as §1

[3] = system: ES-ZH009 (patient-derived Ewing sarcoma tumoroid)
Description: as §1

[4] = system: CDS-ZH003 (patient-derived CIC-DUX4 sarcoma tumoroid)
Description: as §1

[5] = system: ES-ZH008 (patient-derived Ewing sarcoma tumoroid)
Description: as §1

[6] = system: ES-ZH016 (patient-derived Ewing sarcoma tumoroid)
Description: as §1

[7] = system: ES-ZH002 (patient-derived Ewing sarcoma tumoroid)
Description: as §1

[8] = system: CDS-ZH002 (patient-derived CIC-DUX4 sarcoma tumoroid)
Description: as §1

[9] = system: ES-ZH016 direct (Ewing sarcoma cells right after isolation)
Description: as §1

[10] = system: ES-ZH007 (patient-derived Ewing sarcoma tumoroid)
Description: as §1

[11] = system: ES-ZH004 (patient-derived Ewing sarcoma tumoroid)
Description: as §1

[12] = system: CDS-ZH001-2 (patient-derived CIC-DUX4 sarcoma tumoroid)
Description: as §1

[13] = system: ES-ZH001 (patient-derived Ewing sarcoma tumoroid)
Description: as §1

SMILES | differential drug sensitivity score [1] | differential drug sensitivity score [2] | differential drug sensitivity score [3] | differential drug sensitivity score [4] | differential drug sensitivity score [5] | differential drug sensitivity score [6] | differential drug sensitivity score [7] | differential drug sensitivity score [8] | differential drug sensitivity score [9] | differential drug sensitivity score [10] | differential drug sensitivity score [11] | differential drug sensitivity score [12] | differential drug sensitivity score [13]
Cc1ccc(F)c(NC(=O)Nc2ccc(-c3cccc4[nH]nc(N)c34)cc2)c1 [Linifanib] | 0.8 | 1.4 | 2.3 | 0.8 | -0.4 | 0.1 | 2.4 | -1.4 | 0.7 | -1.4 | -1.3 | -0.9 | 3.8
CC[C@H](Nc1ncnc2[nH]cnc12)c1nc2cccc(F)c2c(=O)n1-c1ccccc1 [Idelalisib] | -1.4 | -1.5 | -1.5 | 2.9 | -1.5 | 1.5 | 1.3 | -1.4 | -1.5 | -1.5 | -1.5 | -1.3 | -1.5
CCC(=O)N1CCN(c2ccc(-n3c(=O)ccc4cnc5ccc(-c6cnc7ccccc7c6)cc5c43)cc2C(F)(F)F)CC1 [Torin-1] | 4.9 | -8.4 | 6.3 | 4.4 | 0.8 | -1.2 | 6.9 | -4 | -6.9 | -0.5 | -2.7 | 1.9 | -3.5
Cc1nc(Nc2ncc(C(=O)Nc3c(C)cccc3Cl)s2)cc(N2CCN(CCO)CC2)n1 [Dasatinib] | -11.9 | 8.9 | -7 | -9.6 | -7.5 | -10.8 | 2.2 | -3.2 | 9.3 | -6.8 | -3.6 | -4.6 | -4.5
O=c1ncn2nc(Sc3ccc(F)cc3F)ccc2c1-c1c(Cl)cccc1Cl [Neflamapimod] | -2.7 | 1 | 5.9 | -5.6 | 7.4 | 2.9 | 5.8 | -1.2 | 11.9 | 0.5 | 0.5 | 5 | 3.5
Cn1nccc1Nc1nccc(-c2ccn([C@H](CO)c3ccc(Cl)c(F)c3)c(=O)c2)n1 [Ravoxertinib] | -5 | -2.3 | 1.2 | -5 | -5 | -2 | -0.4 | -5 | -5 | -0.3 | -5 | -3.7 | -5
CCc1nc(C(N)=O)c(Nc2ccc(N3CCC(N4CCN(C)CC4)CC3)c(OC)c2)nc1NC1CCOCC1 [Gilteritinib] | 7.4 | 1.6 | 10.1 | 10.4 | 10.2 | 0.8 | 16 | -1.4 | 9.4 | 4.2 | 4.2 | 8 | 1.1
O=C(c1cc(Cc2n[nH]c(=O)c3ccccc23)ccc1F)N1CCN(C(=O)C2CC2)CC1 [Olaparib] | -3.8 | -5.3 | -0.2 | -5.3 | 10.3 | 7.1 | 15 | -5.3 | 11.3 | 4 | 11.2 | -2 | 8.4
O=C(NOC[C@H](O)CO)c1ccc(F)c(F)c1Nc1ccc(I)cc1F [Mirdametinib] | -3 | -2.9 | -3 | -3 | -1.9 | -3 | -3 | -3 | -3 | -3 | -3 | -3 | -3
CN(c1ncccc1CNc1nc(Nc2ccc3c(c2)CC(=O)N3)ncc1C(F)(F)F)S(C)(=O)=O | 5.1 | 3.8 | 0.8 | -0.7 | -0.7 | 2.2 | 6 | -0.6 | -1.2 | -0.4 | -0.4 | 1.5 | 5
COc1cc(OC)cc(N(CCNC(C)C)c2ccc3ncc(-c4cnn(C)c4)nc3c2)c1 [Erdafitinib] | -1.4 | -4.5 | -1.7 | -8 | 10.1 | -3.7 | 7.8 | -4 | 12.1 | -2.5 | 5 | -0.4 | -2.3
COc1cc(C(=O)O)ccc1NC(=O)[C@@H]1N[C@@H](CC(C)(C)C)[C@](C#N)(c2ccc(Cl)cc2F)[C@H]1c1cccc(Cl)c1F [Idasanutlin] | 4 | 10 | -13.6 | 12 | 19.1 | 6.4 | 23 | 1.9 | 15.1 | -13.6 | -13.6 | 8.5 | -13.6
COc1cc(NS(C)(=O)=O)ccc1Nc1c2ccccc2nc2ccccc12 [Amsacrine] | -1.9 | -4.1 | 8.4 | -12.8 | 16.3 | 13.7 | 27.1 | 1.6 | 13.3 | 8.9 | 8.8 | 3 | 12.5
Nc1nc(F)nc2c1ncn2[C@@H]1O[C@H](CO)[C@@H](O)[C@@H]1O [Fludarabine] | -3.2 | 2.5 | -3.2 | -2.8 | -1.1 | 1.4 | 8.7 | -0.8 | 11.5 | 3.9 | 5.3 | 3.9 | 4.6
Fc1cc(-c2cccc3ncc(-c4cnn(C5CCNCC5)c4)nc23)cc(F)c1CN1CCOCC1 [BSK805] | 2.5 | 0.1 | 1.7 | 2.6 | 2.9 | 2.5 | 3.2 | -2.6 | 3 | 2.8 | 1.4 | 1.9 | -0.1
Cn1ncc(Cl)c1-c1cc(C(=O)N[C@H](CN)Cc2cccc(F)c2)sc1Cl [Afuresertib] | 2.8 | -5.5 | 3.6 | 1.1 | 4.6 | -0.3 | 5.8 | -4.7 | -3.4 | 2.4 | 4.1 | 0.3 | -4.1
Cc1sc2c(c1C)C(c1ccc(Cl)cc1)=N[C@@H](CC(=O)Nc1ccc(O)cc1)c1nnc(C)n1-2 [Birabresib] | -1.1 | 1.5 | 11.9 | -0.8 | 5.9 | -7.9 | 0.3 | -11.1 | 11.1 | -4.1 | -6.7 | 1 | -5.6
CNC(=O)c1ccccc1Sc1ccc2c(/C=C/c3ccccn3)n[nH]c2c1 [Axitinib] | -0.9 | -0.9 | 0.4 | 6 | -0.9 | -0.9 | 2.2 | -0.9 | 3.8 | -0.9 | -0.9 | -0.8 | -0.9
Cc1cnc(Nc2ccc(OCCN3CCCC3)cc2)nc1Nc1cccc(S(=O)(=O)NC(C)(C)C)c1 [Fedratinib] | -0.1 | -3.3 | 3.9 | -2.2 | 1.5 | -1.3 | 5.5 | -1.7 | -0.1 | -1.8 | -3.2 | 0.2 | 1.8
CC[C@]1(O)C[C@H]2CN(CCc3c([nH]c4ccccc34)[C@@](C(=O)OC)(c3cc4c(cc3OC)N(C=O)[C@H]3[C@@](O)(C(=O)OC)[C@H](OC(C)=O)[C@]5(CC)C=CCN6CC[C@]43[C@@H]65)C2)C1 [Vincristine] | 9.3 | 13.4 | 26 | -10.2 | 16.9 | 18.3 | 24 | 10.8 | 10 | 16.1 | 13.2 | -4.8 | 24.2
COc1cc(Nc2c(C#N)cnc3cc(OCCCN4CCN(C)CC4)c(OC)cc23)c(Cl)cc1Cl [Bosutinib] | 0.6 | -0.5 | 0.5 | -0.4 | -0.5 | 1.1 | -0.5 | 0.1 | 0.2 | -0.5 | -0.5 | 1.8 | -0.5
COc1cc2nccc(Oc3ccc(NC(=O)C4(C(=O)Nc5ccc(F)cc5)CC4)cc3)c2cc1OC [Cabozantinib] | -2.6 | -2 | -1.5 | -1.5 | 1.7 | -2.4 | 3.4 | -2.6 | -2.6 | -1 | 5.9 | -2.6 | 3.6
CN(C)C/C=C/C(=O)Nc1cc2c(Nc3ccc(F)c(Cl)c3)ncnc2cc1O[C@H]1CCOC1 [Afatinib] | -4.6 | -4.7 | -3 | -4.9 | -1.4 | -4.6 | -2 | -4.9 | -2.4 | -4.2 | -0.3 | -3.4 | -3.9
O=C1NC(=O)[C@@H](c2cn3c4c(cccc24)CCC3)[C@@H]1c1c[nH]c2ccccc12 [Tivantinib] | 2.5 | -1.2 | 7.7 | -3.8 | -1.9 | 7.4 | 9.4 | -3.1 | 2.2 | 2.7 | 1 | -0.2 | 9.4
N#Cc1ccc2[nH]c(O)c(-c3ccc(CN4CCOCC4)cn3)c2c1 [AZD1080] | -0.1 | -0.1 | 0 | -0.1 | 1 | -0.1 | -0.1 | -0.1 | 0.2 | 0.4 | 0.6 | -0.1 | -0.1
C=CCn1c(=O)c2cnc(Nc3ccc(N4CCN(C)CC4)cc3)nc2n1-c1cccc(C(C)(C)O)n1 [Adavosertib] | 4.9 | -2.6 | 10.9 | 4.9 | 7.6 | 2.8 | 12 | 3 | 8.1 | 4 | 0.2 | 5.3 | 8.1
CO/N=C1\C[C@]2(C[C@@H]3C[C@@H](C/C=C(\C)C[C@@H](C)/C=C/C=C4\CO[C@@H]5[C@H](O)C(C)=C[C@@H](C(=O)O3)[C@]45O)O2)O[C@H](/C(C)=C/C(C)C)[C@H]1C [Moxidectin] | 0.1 | 0 | 3.8 | -4.8 | -1.8 | -0.4 | 3.7 | -3.7 | 0 | -0.2 | 0.9 | -5 | 0.2
Cc1c2oc3c(C)ccc(C(=O)N[C@@H]4C(=O)N[C@H](C(C)C)C(=O)N5CCC[C@H]5C(=O)N(C)CC(=O)N(C)[C@@H](C(C)C)C(=O)O[C@@H]4C)c3nc-2c(C(=O)N[C@@H]2C(=O)N[C@H](C(C)C)C(=O)N3CCC[C@H]3C(=O)N(C)CC(=O)N(C)[C@@H](C(C)C)C(=O)O[C@@H]2C)c(N)c1=O [Dactinomycin] | 12.1 | 11.9 | 12.8 | 12.7 | 12.5 | 11.8 | 11.1 | 11.4 | 9.9 | 8.7 | 7.5 | 11.9 | 9.7
